Laboratory results: US20040198791A1 (priority 2001, published 2004)

These compounds were tested against T1, human NPY Y5 receptors (Homo sapiens, UniProt Q15761) (assay: Inhibition of [125I]-PYY binding to HEK-293 cells expressing human NPY Y5 receptors). Conditions: HEK-293 cells stably expressing human NPY Y5 receptors, 25° C., 120 minutes.
T1 construct: expressed in transfected cells; host or cells: HEK-293
T1 sequence (Q15761 1-445): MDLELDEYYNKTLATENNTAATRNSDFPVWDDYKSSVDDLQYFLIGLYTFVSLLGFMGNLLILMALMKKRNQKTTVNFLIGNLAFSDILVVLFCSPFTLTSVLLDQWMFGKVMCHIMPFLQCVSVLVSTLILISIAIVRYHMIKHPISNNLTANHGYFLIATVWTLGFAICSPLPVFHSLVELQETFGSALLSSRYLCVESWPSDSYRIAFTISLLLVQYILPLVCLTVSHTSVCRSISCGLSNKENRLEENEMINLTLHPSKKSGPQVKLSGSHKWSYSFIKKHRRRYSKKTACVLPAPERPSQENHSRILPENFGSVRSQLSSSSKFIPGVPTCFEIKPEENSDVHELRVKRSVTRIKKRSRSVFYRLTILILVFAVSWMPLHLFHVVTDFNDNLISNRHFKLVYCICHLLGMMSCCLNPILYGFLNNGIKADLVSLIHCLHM
Procedure: Effects on binding ability of PYY(peptide YY) to HEK(human embryo kidneys)-293 cells transducted with human NPY(neuropeptide Y) Y5 receptors
HEK-293 cells, which stably manifest human NPY Y5 receptors, were incubated at 25° C. for 120 minutes in the […] of test compounds in an assay medium containing 0.1 mM PMSF (phenylmethylsulfonyl fluoride), 0.05% bacitracin, 0.1% BSA (bovine serum albumin) and 25mM Tris HCl (pH 7.4). The non-specific binding was measured in the presence of […] non-labelled PYY. The reaction was terminated by rapidly filtering with Wattmann GF/C glass fiber filter with using the cell harvester. After the glass fiber filter was washed with 150 mM sodium chloride and 25 mM Tris HCl buffer solution (pH 7.4) containing 0.01% BSA, radioactivity of the […] was measured by using the γ-counter. The IC50 value of the test compound was determined by the inhibition of [^125I]-PYY binding obtained by the test compound at various concentrations. The test compound is represented with the Example number in which the compound was obtained.

Compound	IC50 [µM]
CC(C)n1nc(-c2nc3c([nH]2)-c2ccccc2CCC3)ccc1=O [8 (10), 2-(1-Isopropyl-6-oxo-1,6-dihydropyridazin-3-yl)-5,6-dihydro-4H-1,3-diazabenzo[e]azulene]	0.26
c1ccc2c(c1)CCCc1[nH]c(-c3c[nH]cn3)nc1-2 [8 (11)]	0.55
COc1ccc2c(c1)-c1nc(-c3ccccc3)[nH]c1CC2 [8 (4), 8-Methoxy-2-phenyl-4,5-dihydronaphtho[1,2-d]imidazole]	0.051
COc1ccc2c(c1)-c1c(nc(-c3ccccc3)n1O)CCC2 [2 (1), 9-Methoxy-2-phenyl-5,6-dihydro-4H-1,3-diazabenzo[e]azulen-1-ol]	0.024
c1ccc(-c2nc3c([nH]2)CCOc2ccccc2-3)cc1 [8 (15), 2-Phenyl-4,5-dihydro-3H[l]benzoxepino[4,5-d]imidazole]	0.061
c1ccc2c(c1)CCCc1nc(-c3ccc4c(c3)OCCO4)[nH]c1-2 [8 (9), 2-(1,4-Benzodioxan-6-yl)-5,6-dihydro-4H-1,3-diazabenzo[e]azulene]	0.18
COc1ccc2c(c1)-c1nc(-c3ccccc3)[nH]c1CCC2 [8 (1), 9-Methoxy-2-phenyl-3,4,5,6-tetrahydro-1,3-diazabenzo[e]azulene]	0.025
Fc1ccc2c(c1)-c1[nH]c(-c3ccncc3)nc1CCC2 [10 (2), 9-Fluoro-2-(pyridin-4-yl)-5,6-dihydro-4H-1,3-diazabenzo[e]azulene]	0.013
Cc1ccc2c(c1)-c1[nH]c(-c3ccccn3)nc1CCC2 [8 (12), 2-(Pyridin-2-yl)-5,6-dihydro-9-methyl-4H-1,3-diazabenzo[e]azulene]	0.032
COc1ccc2c(c1)-c1nc(-c3ccccn3)[nH]c1CCC2 [8 (3), 9-Methoxy-2-(pyridin-2-yl)-3,4,5,6-tetrahydro-1,3-diazabenzo[e]azulene]	0.12
c1ccc2c(c1)CCCc1nc(-c3ccncc3)[nH]c1-2 [8 (8), 2-(Pyridin-4-yl)-5,6-dihydro-4H-1,3-diazabenzo[e]azulene]	0.02
Fc1ccc2c(c1)-c1[nH]c(-c3ccccn3)nc1CCC2 [Example 9, 9-fluoro-2-(pyridin-2-yl)-5,6-dihydro-4H-1,3-diazabenzo[e]azulene]	0.046
c1ccc(-c2nc3c([nH]2)-c2ccccc2CCC3)nc1 [8 (6), 2-(Pyridin-2-yl)-5,6-dihydro-4H-1,3-diazabenzo[e]azulene]	0.13
COc1ccc2c(c1)-c1c(nc(-c3ccncc3)n1O)CCC2 [Example 1, 9-methoxy-2-(pyridin-4-yl)-5,6-dihydro-4H-1,3-diazabenzo[e]azulen-1-ol]	0.073

Continued by falling IC50, values first:

IC50 [µM]	Compound
0.013	COc1ccc2c(c1)-c1nc(-c3ccncc3)[nH]c1CCC2 [Example 7, 9-methoxy-2-(pyridin-4-yl)-3,4,5,6-tetrahydro-1,3-diazabenzo[e]azulene]
0.0073	c1cncc(-c2nc3c([nH]2)-c2ccccc2CCC3)c1 [8 (7), 2-(Pyridin-3-yl)-5,6-dihydro-4H-1,3-diazabenzo[e]azulene]
0.0069	Fc1ccc2c(c1)-c1nc(-c3cccnc3)[nH]c1CCC2 [10 (1), 9-Fluoro-2-(pyridin-3-yl)-5,6-dihydro-4H-1,3-diazabenzo[e]azulene]
0.0064	Cc1ccc2c(c1)-c1[nH]c(-c3ccncc3)nc1CCC2 [8 (14), 2-(Pyridin-4-yl)-5,6-dihydro-9-methyl-4H-1,3-diazabenzo[e]azulene]
0.0063	COc1ccc2c(c1)-c1nc(-c3cccnc3)[nH]c1CCC2 [8 (2), 9-Methoxy-2-(pyridin-3-yl)-3,4,5,6-tetrahydro-1,3-diazabenzo[e]azulene]
0.0058	c1ccc(-c2nc3c([nH]2)-c2ccccc2CCC3)cc1 [8 (5), 2-Phenyl-5,6-dihydro-4H-1,3-diazabenzo[e]azulene]
0.0023	Cc1ccc2c(c1)-c1[nH]c(-c3cccnc3)nc1CCC2 [8 (13), 2-(Pyridin-3-yl)-5,6-dihydro-9-methyl-4H-1,3-diazabenzo[e]azulene]
0.0017	Clc1ccc2c(c1)-c1[nH]c(-c3ccccc3)nc1CCC2 [Example 11, 9-chloro-2-phenyl-5,6-dihydro-4H-1,3-diazabenzo[e]azulene]
